The NIST ThermoML archive (doi:10.1021/je060271a)

Conditions: 343.15 K, Liquid, Vibrating tube method

CCCCCCCC(=O)OCC(COC(=O)CCCCCCC)(COC(=O)CCCCCCC)COC(=O)CCCCCCC [pentaerythritol tetraoctanoate]
Conditions | mass density [kg/m3]
14038 kPa | 936.2
14078 kPa | 936.3
14099 kPa | 936.2
14121 kPa | 936.1
14146 kPa | 936.2
14168 kPa | 936.1
14194 kPa | 936.3
14216 kPa | 936.3
14238 kPa | 936.2
14260 kPa | 936.2
14286 kPa | 936.3
14308 kPa | 936.4
14330 kPa | 936.4
14357 kPa | 936.2
14379 kPa | 936.4
14401 kPa | 936.3
14428 kPa | 936.3
14450 kPa | 936.4
14473 kPa | 936.4
14500 kPa | 936.4
14523 kPa | 936.4
14546 kPa | 936.5
14570 kPa | 936.6
14594 kPa | 936.4
14621 kPa | 936.6
14644 kPa | 936.5
14667 kPa | 936.4
14694 kPa | 936.5
14718 kPa | 936.6
14741 kPa | 936.7
14765 kPa | 936.5
14793 kPa | 936.6
14817 kPa | 936.6
14845 kPa | 936.6
14870 kPa | 936.7
14894 kPa | 936.6
14918 kPa | 936.8
14947 kPa | 936.7
14971 kPa | 936.8
14995 kPa | 936.7
15024 kPa | 936.7
15049 kPa | 936.8
15078 kPa | 936.8
15103 kPa | 936.8
15127 kPa | 936.8
15152 kPa | 936.9
15183 kPa | 936.8
15208 kPa | 936.8
15233 kPa | 936.8
15263 kPa | 936.9
15288 kPa | 937
15314 kPa | 937
15344 kPa | 937
15370 kPa | 937
15396 kPa | 937.1
15426 kPa | 937.1
15452 kPa | 937
15478 kPa | 937
15508 kPa | 937
15536 kPa | 937
15563 kPa | 937.1
15589 kPa | 937.3
15616 kPa | 937.2
15647 kPa | 937.1
15673 kPa | 937.2
15705 kPa | 937.3
15732 kPa | 937.3
15759 kPa | 937.3
15791 kPa | 937.2
15818 kPa | 937.3
15846 kPa | 937.3
15879 kPa | 937.4
15908 kPa | 937.4
15936 kPa | 937.2
15964 kPa | 937.3
15992 kPa | 937.3
16026 kPa | 937.4
16054 kPa | 937.5
16083 kPa | 937.4
16116 kPa | 937.5
16144 kPa | 937.5
16173 kPa | 937.5
16207 kPa | 937.5
16236 kPa | 937.5
16265 kPa | 937.7
16300 kPa | 937.7
16329 kPa | 937.6
16358 kPa | 937.7
16387 kPa | 937.6
16423 kPa | 937.7
16453 kPa | 937.7
16483 kPa | 937.8
16518 kPa | 937.7
16548 kPa | 937.6
16578 kPa | 937.8
16609 kPa | 937.7
16645 kPa | 937.8
16676 kPa | 937.9
16707 kPa | 937.9
16738 kPa | 937.8
16775 kPa | 937.8
16806 kPa | 937.9
16843 kPa | 938.1
16904 kPa | 938
16942 kPa | 938
16974 kPa | 938.1
17005 kPa | 938
17037 kPa | 938.1
17075 kPa | 938.1
17107 kPa | 938.1
17146 kPa | 938.2
17354 kPa | 938.2
17387 kPa | 938.2
17421 kPa | 938.3
17460 kPa | 938.4
17494 kPa | 938.4
17528 kPa | 938.4
17569 kPa | 938.5
17604 kPa | 938.5
17638 kPa | 938.4
17678 kPa | 938.5
17713 kPa | 938.4
17748 kPa | 938.5
17790 kPa | 938.6
17825 kPa | 938.6
17861 kPa | 938.6
17904 kPa | 938.7
17940 kPa | 938.7
17977 kPa | 938.8
18022 kPa | 938.8
18054 kPa | 938.8
18084 kPa | 938.8
18119 kPa | 938.8
18149 kPa | 938.8
18179 kPa | 938.8
18210 kPa | 938.9
18247 kPa | 938.9
18279 kPa | 938.9
18312 kPa | 938.9
18349 kPa | 939
18372 kPa | 938.9
18393 kPa | 939.1
18411 kPa | 939.1
18430 kPa | 939
18448 kPa | 939
18465 kPa | 939.1
18482 kPa | 939.1
18503 kPa | 939.2
18521 kPa | 939.1
18542 kPa | 939.2
18560 kPa | 939.1
18577 kPa | 939.1
18598 kPa | 939.1
18616 kPa | 939.1
18635 kPa | 939.2
18657 kPa | 939.2
18673 kPa | 939.2
18695 kPa | 939.2
18712 kPa | 939.1
18730 kPa | 939.3
18752 kPa | 939.4
18771 kPa | 939.4
18789 kPa | 939.2
18812 kPa | 939.2
18830 kPa | 939.2
18848 kPa | 939.3
18870 kPa | 939.4
18888 kPa | 939.3
18907 kPa | 939.4
18926 kPa | 939.4
18948 kPa | 939.4
18967 kPa | 939.4
18986 kPa | 939.4
19008 kPa | 939.4
19027 kPa | 939.4
19049 kPa | 939.6
19068 kPa | 939.5
19087 kPa | 939.4
19106 kPa | 939.5
19129 kPa | 939.5
19148 kPa | 939.4
19167 kPa | 939.5
19190 kPa | 939.6
19210 kPa | 939.6
19225 kPa | 939.6
19248 kPa | 939.6
19271 kPa | 939.5
19291 kPa | 939.6
19310 kPa | 939.7
19334 kPa | 939.6
19353 kPa | 939.6
19373 kPa | 939.6
19396 kPa | 939.7
19416 kPa | 939.7
19436 kPa | 939.7
19456 kPa | 939.8
19480 kPa | 939.6
19499 kPa | 939.7
19519 kPa | 939.6
19543 kPa | 939.7
19563 kPa | 939.8
19587 kPa | 939.8
19608 kPa | 939.8
19627 kPa | 939.7
19647 kPa | 939.8
19671 kPa | 939.9
19691 kPa | 939.7
19712 kPa | 939.8
19736 kPa | 939.8
19756 kPa | 939.8
19780 kPa | 939.9
19801 kPa | 940.1
19821 kPa | 940.1
19841 kPa | 939.9
19866 kPa | 940
19887 kPa | 940
19907 kPa | 940
19932 kPa | 940
19952 kPa | 940.1
19977 kPa | 940
19999 kPa | 940
20019 kPa | 940
20040 kPa | 940.1
20065 kPa | 940
20108 kPa | 940.1
20155 kPa | 940.1
20180 kPa | 940.2
20201 kPa | 940.2
20223 kPa | 940.1
20245 kPa | 940.2
20271 kPa | 940.1
20295 kPa | 940.1
20316 kPa | 940.3
20338 kPa | 940.2
20364 kPa | 940.2
20386 kPa | 940.3
20408 kPa | 940.3
20434 kPa | 940.3
20527 kPa | 940.5
20550 kPa | 940.3
20577 kPa | 940.3
20596 kPa | 940.4
20622 kPa | 940.5
20645 kPa | 940.4
20667 kPa | 940.5
20690 kPa | 940.5
20708 kPa | 940.5
20731 kPa | 940.6
20753 kPa | 940.5
20790 kPa | 940.5
20813 kPa | 940.5
20836 kPa | 940.5
20864 kPa | 940.6
20887 kPa | 940.6
20910 kPa | 940.5
20938 kPa | 940.7
20961 kPa | 940.6
20984 kPa | 940.8
21008 kPa | 940.5
21036 kPa | 940.7
21059 kPa | 940.8
21087 kPa | 940.8
21110 kPa | 940.8
21134 kPa | 940.7
21162 kPa | 940.8
21185 kPa | 940.8
21215 kPa | 940.8
21239 kPa | 940.8
21262 kPa | 940.9
21286 kPa | 940.9
21315 kPa | 940.9
21339 kPa | 940.9
21363 kPa | 940.9
21392 kPa | 941
21416 kPa | 941
21440 kPa | 941
21469 kPa | 940.9
21494 kPa | 941.1
21518 kPa | 941.1
21548 kPa | 941
21573 kPa | 941.1
21597 kPa | 941.1
21622 kPa | 941.1
21652 kPa | 941.1
21677 kPa | 941.1
21702 kPa | 941.2
21732 kPa | 941.3
21757 kPa | 941.3
21782 kPa | 941.2
21812 kPa | 941.2
21837 kPa | 941.1
21863 kPa | 941.2
21890 kPa | 941.1
21920 kPa | 941.2
21946 kPa | 941.3
21977 kPa | 941.3
